Each structure is given as a SMILES string.

This assay relates to peroxide produced in rat liver homogenates. Nature of the assay: Antioxidant activity: FeSO4-generated peroxides in rat liver homogenate, thiobarbituric acid reaction. In kind it is biochemical. The note with it: rat liver homogenate incubated with FeSO4, thiobarbituric acid reaction; read-out: IC50, antioxidant activity (peroxide production). How it is done: Rat liver homogenates were prepared according to Fraga, C. G. et al. Free Radicals Biol. Med., 4, 155, 1988 and Kornburst D. J. et al. Lipids 15, 315, 1980.
Peroxides were generated by incubation of the homogenate with the FeSO4 as described by Quitanilha A. T. et al. Ann. N.Y., Acad. Sci. 393, 32, 1982.
Compounds to be tested for their antioxidant activity were dissolved in DMSO and added to the incubation mixture. The amount of peroxide produced was determined by the thiobarbituric acid reaction using malonaldehyde as standard.
The term IC50 denotes the concentration that inhibits the measured activity by half. In the case of `CCOP(=O)(OCC)C(=Cc1cc(C(C)(C)C)c(O)c2c1CCCC2)P(=O)(OCC)OCC` [Example 6, Tetraethyl 2-(3-tert-butyl-4-hydroxy-5,6,7,8-tetrahydronaphthyl)-ethenylidene-1,1-diphosphonate], the concentration for half-maximal inhibition (IC50) was found to be 7 µM. Consider `CCOP(=O)(OCC)C(=Cc1cc(C(C)(C)C)c(O)c2ccccc12)P(=O)(OCC)OCC` [Example 1], for which the IC50 came out at 1.5 µM.

As for `CC(C)OP(=O)(OC(C)C)C(=Cc1cc(C(C)(C)C)c(O)c2ccccc12)P(=O)(OC(C)C)OC(C)C` [Example 2], the IC50 was 0.7 µM. Regarding `CC(C)OP(=O)(OC(C)C)C(=Cc1cc(C(C)(C)C)c(O)c2c1CCCC2)P(=O)(OC(C)C)OC(C)C` [Example 8, Tetraispropyl 2-[3-tert-butyl-4-hydroxy-5,6,7,8-tetrahydronaphthyl]-ethenylidene-1,1-diphosphonate], the IC50 turned out to be 2.5 µM.

The values are drawn from patent US5204336A, “Naphthyl-,tetrahydronaphthyl-, and indanyl-substituted G-em-diphosphonates and process of use to treat hyperlipidemia” (Symphar S.A., priority 1992, dated 1993).
